From US7781470B2, “Aminodicarboxylic acid derivatives having pharmaceutical properties” (Bayer Schering Pharma Aktiengesellschaft, priority 1999, dated 2010)
Structures can show the parent of a compound that is named as a salt.

Experiments:
arteria saphena rings = assay: Vasal relaxant action in vitro (phenylephrin-contracted artery rings); assay type: cell-based, Rabbits; conditions: Oryctolagus cuniculus; concentration reducing phenylephrin-induced contraction by 50%; rabbit arteria saphena rings; read-out: IC50 vasorelaxant action in vitro
Experimental: Rabbits are anaesthetized by intravenous injection of thiopental sodium […] (about 50 mg/kg) and exsanguinated. The arteria saphena is removed and divided into 3 mm wide rings. The rings are individually mounted on in each case one triangular pair of hooks, open at the end, made of 0.3 mm strong special wire (Remanium®). Under a pretension, each ring is transferred into 5 ml organ baths containing a warm, carbogen-aerated Krebs-Henseleit solution at 37° C. having the following composition (mM): NaCl: 119; KCl: 4.8; CaCl2×2H2O: 1; MgSO4×7 H2O: 1.4; KH2PO4: 1.2; NaHCO3: 25; glucose: 10; bovine serum albumin: 0.001%. The contractility is detected using Statham UC2 cells, amplified and digitalized by means of A/D converters (DAS-1802 HC, Keithley Instruments Munich), and recorded in parallel on linear recorders. Contractions are induced by addition of phenylephrin.
After several (in general 4) control cycles, the substance to be investigated is added in each further passage in increasing dosage, and the height of the contraction achieved under the influence of the test substance is compared with the height of the contraction achieved in the last preliminary passage. From this, the concentration which is necessary in order to reduce the contraction achieved in the preliminary control by 50% ((IC50) is calculated. The standard administration volume is 5 μl. The proportion of DMSO in the bath solution corresponds to 0.1%.

[1] = molecular target: T1, Haem-free sGC (recombinant soluble guanylate cyclase) (Rattus norvegicus, UniProt P20595); assay: Stimulation of recombinant soluble guanylate cyclase (sGC) in vitro, haem-free enzyme; assay type: biochemical; conditions: for Stimulation (n-fold), haem-free sGC, basal: Tween 20 0.5%
T1 construct: made in house
T1 sequence (P20595 1-619): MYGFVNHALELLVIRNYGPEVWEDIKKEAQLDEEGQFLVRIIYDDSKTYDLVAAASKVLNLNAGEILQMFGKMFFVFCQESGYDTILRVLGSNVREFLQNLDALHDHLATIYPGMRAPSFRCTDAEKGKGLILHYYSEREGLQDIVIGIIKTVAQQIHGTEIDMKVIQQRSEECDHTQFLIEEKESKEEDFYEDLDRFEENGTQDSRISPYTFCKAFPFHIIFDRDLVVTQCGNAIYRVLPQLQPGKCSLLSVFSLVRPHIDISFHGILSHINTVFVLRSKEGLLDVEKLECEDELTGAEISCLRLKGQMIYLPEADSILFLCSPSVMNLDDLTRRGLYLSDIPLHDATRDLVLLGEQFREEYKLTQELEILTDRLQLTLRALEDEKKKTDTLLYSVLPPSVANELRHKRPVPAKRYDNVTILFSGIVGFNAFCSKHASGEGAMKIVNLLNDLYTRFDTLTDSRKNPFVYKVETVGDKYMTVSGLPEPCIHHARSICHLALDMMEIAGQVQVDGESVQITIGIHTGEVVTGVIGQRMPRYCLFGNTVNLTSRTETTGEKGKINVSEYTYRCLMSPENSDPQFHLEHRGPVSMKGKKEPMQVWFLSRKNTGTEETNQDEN
T1 sequence (P19686 1-690 partner): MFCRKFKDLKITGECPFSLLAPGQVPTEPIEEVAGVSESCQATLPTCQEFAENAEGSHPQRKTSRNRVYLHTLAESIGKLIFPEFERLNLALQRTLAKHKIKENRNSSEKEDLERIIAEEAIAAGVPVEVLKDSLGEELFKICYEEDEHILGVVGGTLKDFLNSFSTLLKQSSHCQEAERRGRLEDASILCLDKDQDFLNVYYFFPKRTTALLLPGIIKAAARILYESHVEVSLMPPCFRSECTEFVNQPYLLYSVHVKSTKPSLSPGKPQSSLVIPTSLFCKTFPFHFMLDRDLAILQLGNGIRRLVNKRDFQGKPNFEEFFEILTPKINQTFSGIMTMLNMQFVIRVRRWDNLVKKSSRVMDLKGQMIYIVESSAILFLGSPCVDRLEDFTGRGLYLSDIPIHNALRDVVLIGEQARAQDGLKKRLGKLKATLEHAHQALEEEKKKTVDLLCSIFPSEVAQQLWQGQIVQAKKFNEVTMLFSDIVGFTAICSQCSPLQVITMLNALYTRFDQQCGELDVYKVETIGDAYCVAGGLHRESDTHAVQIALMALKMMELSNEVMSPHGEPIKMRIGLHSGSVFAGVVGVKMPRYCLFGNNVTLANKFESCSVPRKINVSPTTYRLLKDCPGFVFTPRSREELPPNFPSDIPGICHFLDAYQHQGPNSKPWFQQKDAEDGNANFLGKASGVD
Experimental: (§1) The investigations on the stimulation of recombinant soluble guanylate cyclase (sGC) and the compounds according to the invention with and without sodium nitroprusside and with and without the haem-dependent sGC inhibitor 1H-1,2,4-oxadiazole-(4,3a)-quinoxalin-1-one (ODQ) were carried out by the method described in detail in the following literature reference: M. Hoenicka, E. M. Becker, H. Apeler, T. Sirichoke, H. Schroeder, R. Gerzer and J.-P. Stasch: Purified soluble guanylyl cyclase expressed in a baculovirus/Sf9 system: stimulation by YC-1, nitric oxide, and […]. J. Mol. Med. 77 (1999): 14-23.
Haem-free guanylate cyclase was obtained by adding Tween 20 to the sample buffer (final concentration 0.5%).
(§2) Activation of sGC by a test substance is stated as n-fold stimulation of basal activity.

[2] = molecular target: T2, Haem-containing sGC (recombinant soluble guanylate cyclase) (Rattus norvegicus, UniProt P20595); assay: Stimulation of recombinant soluble guanylate cyclase (sGC) in vitro, haem-containing enzyme; assay type: biochemical
T2 construct: made in house
T2 sequence (P20595 1-619): T1 sequence (P20595 1-619)
T2 sequence (P19686 1-690 partner): T1 sequence (P19686 1-690 partner)
Experimental: as §1, §2

[3] = 0.1 μM test compound + ODQ 10 μM
[4] = 1.0 μM test compound + ODQ 10 μM
[5] = 10 μM test compound + ODQ 10 μM
[6] = ODQ 10 μM, Ex. 87 concentration 0

O=C(O)CCCCN(CCc1ccccc1OCc1ccc(CCc2ccccc2)cc1)Cc1ccc(C(=O)O)cc1 [Example 8, 4-[((4-Carboxybutyl)-{2-[(4-phenethylbenzyl)oxy]phenethyl}amino)-methyl]benzoic Acid Hydrochloride]
IC50 (arteria saphena rings): 0.4 nM

O=C(O)CCCCN(CCc1ccccc1OCc1ccc(Oc2ccc(Cl)cc2)cc1)Cc1ccc(C(=O)O)cc1 [Example 28]
IC50 (arteria saphena rings): 2.8 nM

CC(C)(C)c1ccc(COc2ccccc2CCN(CCCCC(=O)O)Cc2ccc(C(=O)O)cc2)cc1 [Example 30]
IC50 (arteria saphena rings): 17 nM

O=C(O)CCCCN(CCc1ccccc1OCc1ccc(OCc2ccccc2)cc1)Cc1ccc(C(=O)O)cc1 [Example 32]
IC50 (arteria saphena rings): 6.5 nM

O=C(O)CCCCN(CCc1ccccc1OCc1ccc(/C=C/c2ccccc2)cc1)Cc1ccc(C(=O)O)cc1 [Example 33]
IC50 (arteria saphena rings): 0.5 nM

C#CCOc1ccccc1CCN(CCCCC(=O)O)Cc1ccc(C(=O)O)cc1 [Example 37]
IC50 (arteria saphena rings): 830 nM

O=C(O)CCCCCN(CCc1ccccc1OCc1ccc(-c2ccccc2)cc1)Cc1ccc(C(=O)O)cc1 [Example 56]
IC50 (arteria saphena rings): 73 nM

O=C(O)CCCCN(CCc1ccccc1OCc1ccc(C2CCCCC2)cc1)Cc1ccc(C(=O)O)cc1 [Example 70]
IC50 (arteria saphena rings): 0.2 nM

O=C(O)CCCCN(CCc1ccccc1OCc1ccc(-c2csc(C(F)(F)F)n2)cc1)Cc1ccc(C(=O)O)cc1 [Example 72]
IC50 (arteria saphena rings): 29 nM

O=C(O)CCCCN(CCc1ccccc1OCc1ccc2c(c1)CCCC2)Cc1ccc(C(=O)O)cc1 [Example 76]
IC50 (arteria saphena rings): 29 nM

O=C(O)CCCCN(CCc1ccccc1OCc1ccc(Oc2ccc(C(F)(F)F)cc2)cc1)Cc1ccc(C(=O)O)cc1 [Example 86]
IC50 (arteria saphena rings): 0.4 nM

O=C(O)CCCCN(CCc1ccccc1OCc1ccc(-c2ccc(Cl)cc2)cc1)Cc1ccc(C(=O)O)cc1 [Example 87]
Stimulation (n-fold), haem-free sGC, +ODQ (10 μM) [1, 3]: 361 n-fold
Stimulation (n-fold), haem-free sGC, basal ([1]; 0.1 μM test compound): 353 n-fold
Stimulation (n-fold), haem-free sGC, +ODQ (10 μM) [1, 4]: 457 n-fold
Stimulation (n-fold), haem-free sGC, basal ([1]; 1.0 μM test compound): 491 n-fold
Stimulation (n-fold), haem-free sGC, +ODQ (10 μM) [1, 5]: 477 n-fold
Stimulation (n-fold), haem-free sGC, basal ([1]; 10 μM test compound): 529 n-fold
Stimulation (n-fold), haem-containing sGC, +ODQ (10 μM) [2, 3]: 132 n-fold
Stimulation (n-fold), haem-containing sGC, +SNP (0.1 μM) ([2]; 0.1 μM test compound + SNP 0.1 μM): 41 n-fold
Stimulation (n-fold), haem-containing sGC, basal ([2]; 0.1 μM test compound, n-fold stimulation of basal activity): 15 n-fold
Stimulation (n-fold), haem-containing sGC, basal ([2]; 1.0 μM test compound): 18 n-fold
Stimulation (n-fold), haem-containing sGC, +ODQ (10 μM) [2, 4]: 115 n-fold
Stimulation (n-fold), haem-containing sGC, +SNP (0.1 μM) ([2]; 1.0 μM test compound + SNP 0.1 μM): 47 n-fold
Stimulation (n-fold), haem-containing sGC, basal ([2]; 10 μM test compound): 24 n-fold
Stimulation (n-fold), haem-containing sGC, +ODQ (10 μM) [2, 5]: 181 n-fold
Stimulation (n-fold), haem-containing sGC, +SNP (0.1 μM) ([2]; 10 μM test compound + SNP 0.1 μM): 60 n-fold
IC50 (arteria saphena rings): 0.5 nM

COc1ccc(-c2ccc(COc3ccccc3CCN(CCCCC(=O)O)Cc3ccc(C(=O)O)cc3)cc2)cc1 [Example 88]
IC50 (arteria saphena rings): 0.4 nM

O=C(O)c1ccc(CN(CCOc2ccc(C(=O)O)cc2)CCc2ccccc2OCCCCCc2ccccc2)cc1 [Example 98]
IC50 (arteria saphena rings): 3.4 nM

O=C(O)c1ccc(CN(CCOc2ccc(C(=O)O)cc2)CCc2ccccc2OCc2ccc(C3CCCCC3)cc2)cc1 [Example 102]
IC50 (arteria saphena rings): 0.2 nM

CCCCCCCCOc1ccccc1CCN(CCOc1ccc(C(=O)O)cc1)Cc1ccc(C(=O)O)cc1 [Example 103]
IC50 (arteria saphena rings): 3.9 nM

O=c1onc2cnc3ccccc3n12 [ODQ, 1H-1,2,4-oxadiazol-(4,3a)-quinoxalin-1-one, reference compound]
Stimulation (n-fold), haem-free sGC, ODQ alone [1, 6]: 1 n-fold
Stimulation (n-fold), haem-containing sGC, ODQ alone [2, 6]: 1 n-fold
